# Reference: ChEMBL document CHEMBL1201862, “PubChem BioAssay data set” (2004)
# Active and inactive are the calls of the source.
# Key:
# [1] = inhibitors of PGC1a acetylation in cells, dose response, cell-based, cherry-picked samples (AID 720514); format: functional;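 note: potency may reflect raised or lowered acetylation signal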
# [2] = biological target: NAD-dependent protein deacylase sirtuin-5, mitochondrial (Homo sapiens, UniProt Q9NXA8); assay: SIRT5 desuccinylase inhibitors, dose response, biochemical, fluorescence imaging, cherry-pick, set 5 (AID 720591);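 note: desuccinylation of succinyl peptide AMC substrate read as fluorescence after trypsin release; potency of inhibitors that lower fluorescence and may act on trypsin instead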
# NAD-dependent protein deacylase sirtuin-5, mitochondrial, sequence (Q9NXA8 whole entry): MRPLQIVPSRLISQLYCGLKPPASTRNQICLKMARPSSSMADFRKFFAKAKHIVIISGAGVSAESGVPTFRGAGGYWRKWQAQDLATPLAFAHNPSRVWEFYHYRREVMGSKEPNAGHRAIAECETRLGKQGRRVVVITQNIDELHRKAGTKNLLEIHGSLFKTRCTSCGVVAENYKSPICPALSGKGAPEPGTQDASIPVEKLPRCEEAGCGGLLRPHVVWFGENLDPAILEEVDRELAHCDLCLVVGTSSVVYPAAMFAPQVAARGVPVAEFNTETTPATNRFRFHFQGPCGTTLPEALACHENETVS
# H9c2 = assay: cells; format: functional, cell-based; details: Rattus norvegicus, H9c2, Myocardium;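 note: confirmatory concentration-response retest of ultra-high-throughput screening hits for modulation of myocardial damage; cell death induced by hydrogen peroxide oxidative stress; compound pretreatment for 60 min then peroxide exposure for 2 h; potency is for protecting the cells against peroxide damage rather than for killing them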
# HeLa = assay: HeLa cell cytotoxicity, dose response, cytotoxicity control, ATP luminescence, cherry-pick samples (AID 687004); format: functional, cell-based; details: Homo sapiens
# Paired box protein Pax-8 = Paired box protein Pax-8 (Homo sapiens, UniProt Q06710); assay: inhibitors of PAX8-driven TPO luciferase reporter, dose response, RMG-I cells, cherry-pick (AID 687027); format: functional, cell-based;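 note: luciferase reporter driven by Pax8 target thyroperoxidase promoter measured by SteadyGlo luminescence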
# Paired box protein Pax-8, sequence (Q06710 whole entry): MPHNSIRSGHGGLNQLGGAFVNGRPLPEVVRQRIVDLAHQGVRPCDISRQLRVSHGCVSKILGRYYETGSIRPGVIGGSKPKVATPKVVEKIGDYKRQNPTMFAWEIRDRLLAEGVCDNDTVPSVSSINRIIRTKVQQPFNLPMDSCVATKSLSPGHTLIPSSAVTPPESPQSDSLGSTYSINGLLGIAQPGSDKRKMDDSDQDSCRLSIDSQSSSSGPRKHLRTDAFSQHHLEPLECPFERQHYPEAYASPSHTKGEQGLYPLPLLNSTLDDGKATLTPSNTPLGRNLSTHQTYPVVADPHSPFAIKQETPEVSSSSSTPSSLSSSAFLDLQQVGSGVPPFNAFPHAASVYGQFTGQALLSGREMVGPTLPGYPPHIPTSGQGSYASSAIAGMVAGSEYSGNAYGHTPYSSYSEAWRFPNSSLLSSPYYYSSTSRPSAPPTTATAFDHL
# [3] = A549 cell cytotoxicity, dose response, cytotoxicity control, plate reader, cherry-pick, antagonist series (AID 743412); format: functional, cell-based
# [4] = HepG2 cell cytotoxicity, dose response, cytotoxicity control, plate reader, cherry-pick, antagonist series (AID 743416); format: functional, cell-based
# [5] = LGR2 antagonists, dose response, cell-based, HEK293, CRE-luciferase reporter, cherry pick, set 2 (AID 743343); format: functional;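 note: transfected cells were stimulated with diluted bursicon conditioned medium after compound addition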
# [6] = non-specific cell cytotoxicity, dose response, cytotoxicity control for PAX8 inhibitor project, plate reader, dry powder samples (AID 743021); format: functional, cell-based
# [7] = MC4R antagonists, dose response, counter-screen for LGR2 antagonist project, cell-based, plate reader, cherry pick (AID 743444); format: functional;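 note: transfected HEK 293 cells stimulated with alpha-MSH peptide; potency of inhibitors of the alpha-MSH evoked signal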
# [8] = HEK293 cell cytotoxicity, dose response, cytotoxicity control, plate reader, cherry-picked samples (AID 743446); format: functional, cell-based
# [9] = biological target: T1, Replicative DNA helicase DnaB (Mycobacterium tuberculosis, UniProt P9WMR3); assay: DnaB intein splicing inhibitors, dose response, biochemical, cell-free fluorescence (AID 449749); format: functional
# T1 sequence (P9WMR3 whole entry): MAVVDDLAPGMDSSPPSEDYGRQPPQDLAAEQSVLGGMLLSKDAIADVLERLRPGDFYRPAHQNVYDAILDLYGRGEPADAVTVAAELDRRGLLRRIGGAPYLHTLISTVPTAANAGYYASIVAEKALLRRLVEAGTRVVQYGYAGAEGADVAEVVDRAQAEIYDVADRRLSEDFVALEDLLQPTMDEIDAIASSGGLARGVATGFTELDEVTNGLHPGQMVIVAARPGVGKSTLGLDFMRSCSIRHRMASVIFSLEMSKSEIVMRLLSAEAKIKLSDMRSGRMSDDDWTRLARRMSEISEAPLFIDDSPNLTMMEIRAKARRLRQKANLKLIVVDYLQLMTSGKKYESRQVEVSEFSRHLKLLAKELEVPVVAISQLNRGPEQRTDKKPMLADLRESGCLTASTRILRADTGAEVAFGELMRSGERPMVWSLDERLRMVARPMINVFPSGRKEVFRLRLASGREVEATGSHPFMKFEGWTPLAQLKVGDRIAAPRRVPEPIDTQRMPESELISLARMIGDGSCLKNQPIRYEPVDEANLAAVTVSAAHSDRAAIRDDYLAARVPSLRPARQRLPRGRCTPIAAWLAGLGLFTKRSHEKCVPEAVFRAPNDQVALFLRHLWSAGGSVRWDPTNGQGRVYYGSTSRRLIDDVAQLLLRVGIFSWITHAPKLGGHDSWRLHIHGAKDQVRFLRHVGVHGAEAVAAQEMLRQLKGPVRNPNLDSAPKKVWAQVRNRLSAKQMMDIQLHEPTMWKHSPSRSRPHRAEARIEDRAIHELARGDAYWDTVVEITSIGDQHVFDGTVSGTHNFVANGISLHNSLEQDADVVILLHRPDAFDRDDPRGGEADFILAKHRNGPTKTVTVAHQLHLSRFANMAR
# Protein RecA = biological target: T2, Protein RecA (Mycobacterium tuberculosis, UniProt P9WHJ3); assay: Fluorescence Cell-Free Homogeneous Dose Retest to Identify Inhibitors of RecA-Intein Splicing Activity. [Related pubchem assays (depositor defined):AID2097, AID2223, AID489010, AID492950]; format: functional
# T2 sequence (P9WHJ3 whole entry): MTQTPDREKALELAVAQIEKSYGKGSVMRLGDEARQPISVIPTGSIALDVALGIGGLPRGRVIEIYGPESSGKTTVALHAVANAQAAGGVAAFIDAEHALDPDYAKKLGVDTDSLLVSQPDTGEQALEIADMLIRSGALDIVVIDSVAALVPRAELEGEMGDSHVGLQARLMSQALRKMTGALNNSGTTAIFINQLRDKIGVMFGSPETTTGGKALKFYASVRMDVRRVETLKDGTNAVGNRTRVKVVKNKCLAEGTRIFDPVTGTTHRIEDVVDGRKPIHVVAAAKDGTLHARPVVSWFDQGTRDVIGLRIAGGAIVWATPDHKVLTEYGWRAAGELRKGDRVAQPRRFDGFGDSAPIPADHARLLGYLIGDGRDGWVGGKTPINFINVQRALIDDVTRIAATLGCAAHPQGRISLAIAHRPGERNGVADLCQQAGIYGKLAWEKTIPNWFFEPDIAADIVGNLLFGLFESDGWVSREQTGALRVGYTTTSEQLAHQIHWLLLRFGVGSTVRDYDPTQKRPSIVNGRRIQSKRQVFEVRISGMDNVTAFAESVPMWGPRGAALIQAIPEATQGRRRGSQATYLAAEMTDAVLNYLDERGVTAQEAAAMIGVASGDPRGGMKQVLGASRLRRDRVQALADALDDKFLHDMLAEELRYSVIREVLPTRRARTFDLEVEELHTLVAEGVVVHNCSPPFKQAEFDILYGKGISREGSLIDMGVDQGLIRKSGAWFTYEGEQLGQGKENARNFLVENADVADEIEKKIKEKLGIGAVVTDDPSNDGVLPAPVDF
# fMet-Leu-Phe receptor = fMet-Leu-Phe receptor (Homo sapiens, UniProt P21462); assay: FPR ligands, dose response (AID 519); format: functional
# fMet-Leu-Phe receptor, sequence (P21462 whole entry): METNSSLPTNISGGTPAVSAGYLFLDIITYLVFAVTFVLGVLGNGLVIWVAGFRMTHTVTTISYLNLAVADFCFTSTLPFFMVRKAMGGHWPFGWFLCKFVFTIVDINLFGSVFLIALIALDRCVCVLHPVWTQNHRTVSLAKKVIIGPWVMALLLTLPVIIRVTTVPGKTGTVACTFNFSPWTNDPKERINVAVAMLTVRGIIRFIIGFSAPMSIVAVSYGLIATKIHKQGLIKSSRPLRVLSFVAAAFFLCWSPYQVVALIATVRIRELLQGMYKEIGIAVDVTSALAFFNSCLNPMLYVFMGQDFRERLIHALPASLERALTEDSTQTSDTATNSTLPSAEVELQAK
compound,measurement,setting,value
O=C(Nc1cc(S(=O)(=O)N2CCOCC2)ccc1Cl)c1cc([N+](=O)[O-])ccc1Cl,AC50,[1],13 µM (active)
O=C(Cc1cccc(NC(=O)C2CCCN(C(=O)C3CCCC3)C2)c1)Nc1cccc(C(=O)N2CCOCC2)c1 (stereo not given),AC50,[2],> 30 µM (inactive)
CS(=O)(=O)c1ccc(-c2cnc3c(NC=O)cc(-c4ccsc4)cn23)cc1,IC50,H9c2,4.99 µM (active)
same,AC50,HeLa,> 52 µM (inactive)
Oc1nc2ccccc2n1C1CCN(C(c2cc3ccccc3o2)c2nnnn2-c2ccc3c(c2)OCCO3)CC1 (stereo not given),AC50,Paired box protein Pax-8,5.8 µM (active)
same,AC50,[3],12.6 µM (active)
same,AC50,[4],39.1 µM (active)
same,AC50,[5],11.6 µM (active)
same,AC50,[6],24.3 µM (active)
same,AC50,[7],8.87 µM (active)
same,AC50,[8],15.5 µM (active)
COc1cc(-n2nc(C)c3c2OC(N)=C(C#N)C3c2ccccc2)c(Cl)c(Br)c1O (stereo not given),AC50,[9],15.6 µM (active)
same,EC50,Protein RecA,3.47 µM (active)
same,Ki,fMet-Leu-Phe receptor,32.5 µM (inactive)
CC1(C)S[C@@H]2[C@H](NC(=O)Cc3ccccc3)C(=O)N2[C@H]1C(=O)O [PENICILLIN G POTASSIUM],Ki,fMet-Leu-Phe receptor,7.8 µM (active)
